Molecular target: T1, human F508del CFTR (Homo sapiens, UniProt P13569, DEL508-508)
T1 construct: expressed in transfected cells; host or cells: Fisher Rat Thyroid (FRT) cells
Test: CFTR-YFP High Throughput Assay
Assay type: cell-based
Conditions: FRT cells expressing human F508del CFTR and YFP; for Emax: EMax normalized to the positive control, read-out: % Efficacy
How it was run: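 FRT cells stably co-expressing human F508del CFTR and halide-sensitive YFP-H148Q/I152L; for correction, compound (2 nM-40 μM) incubated 24-26 h at 37° C, washed, then stimulated 60-120 min at RT with 20 μM forskolin plus 30 μM potentiator P3. Iodide-induced YFP quench (Ex 500/Em 540 nm) recorded; quench rates least-squares fitted.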

T1 sequence (P13569 with tags, fused parts or gaps DEL508-508): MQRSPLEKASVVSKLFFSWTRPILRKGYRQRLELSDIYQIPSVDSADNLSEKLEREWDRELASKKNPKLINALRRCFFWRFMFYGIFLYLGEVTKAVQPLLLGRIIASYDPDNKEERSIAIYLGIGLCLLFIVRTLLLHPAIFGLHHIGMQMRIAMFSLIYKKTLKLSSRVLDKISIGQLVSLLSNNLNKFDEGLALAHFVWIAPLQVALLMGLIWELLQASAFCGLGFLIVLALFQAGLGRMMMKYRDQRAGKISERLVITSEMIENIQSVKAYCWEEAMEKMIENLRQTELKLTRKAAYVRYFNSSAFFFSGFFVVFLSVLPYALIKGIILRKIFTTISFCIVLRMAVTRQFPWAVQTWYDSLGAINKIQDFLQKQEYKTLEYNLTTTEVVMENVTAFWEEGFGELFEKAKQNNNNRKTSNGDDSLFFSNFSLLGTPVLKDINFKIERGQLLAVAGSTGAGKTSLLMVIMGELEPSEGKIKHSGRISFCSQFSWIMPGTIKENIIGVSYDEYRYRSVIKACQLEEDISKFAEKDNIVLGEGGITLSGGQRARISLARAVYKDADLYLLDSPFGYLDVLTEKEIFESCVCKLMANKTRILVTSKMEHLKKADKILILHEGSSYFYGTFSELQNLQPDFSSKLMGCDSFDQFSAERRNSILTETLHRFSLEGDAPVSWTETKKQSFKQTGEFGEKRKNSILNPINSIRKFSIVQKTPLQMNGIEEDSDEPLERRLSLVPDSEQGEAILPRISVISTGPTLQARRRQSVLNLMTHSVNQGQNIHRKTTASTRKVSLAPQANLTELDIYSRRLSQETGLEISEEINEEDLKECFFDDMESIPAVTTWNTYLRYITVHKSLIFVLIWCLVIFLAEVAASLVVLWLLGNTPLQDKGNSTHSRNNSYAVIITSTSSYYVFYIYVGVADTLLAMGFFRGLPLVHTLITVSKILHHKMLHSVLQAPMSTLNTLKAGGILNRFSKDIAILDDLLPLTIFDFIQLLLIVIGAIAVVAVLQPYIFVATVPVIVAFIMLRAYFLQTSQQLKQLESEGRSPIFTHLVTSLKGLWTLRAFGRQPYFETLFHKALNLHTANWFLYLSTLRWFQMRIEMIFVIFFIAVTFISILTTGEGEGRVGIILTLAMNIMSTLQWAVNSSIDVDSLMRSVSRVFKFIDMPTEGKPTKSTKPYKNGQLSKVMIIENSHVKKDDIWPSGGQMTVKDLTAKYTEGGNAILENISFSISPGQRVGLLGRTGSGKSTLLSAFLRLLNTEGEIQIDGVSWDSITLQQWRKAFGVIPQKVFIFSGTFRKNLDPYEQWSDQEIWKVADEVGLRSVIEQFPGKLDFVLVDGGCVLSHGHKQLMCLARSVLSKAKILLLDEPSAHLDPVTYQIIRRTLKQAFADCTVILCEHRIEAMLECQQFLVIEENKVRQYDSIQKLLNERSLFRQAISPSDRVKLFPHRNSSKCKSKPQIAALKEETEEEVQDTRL

SMILES	Emax [%]	EC50 [µM]
CCc1ccc(N(CC)C(=O)Cn2nc(C(=O)Nc3cc(Cl)ccc3C(=O)OC)c3ccccc3c2=O)cc1 [Example 130, methyl 4-chloro-2-(3-(2-(ethyl(4-ethylphenyl)amino)-2-oxoethyl)-4-oxo-3,4-dihydrophthalazine-1-carboxamido)benzoate]	30 to 80	–
CCN(C(=O)Cn1ncc2c(c1=O)c1ccccc1n2Cc1ccccn1)c1ccc2c(c1)OC(F)(F)O2 [Example 131, N-(2,2-difluorobenzo[d][1, 3]dioxol-5-yl)-N-ethyl-2-(1-oxo-5-(pyridin-2-ylmethyl)-1H-pyridazino[4,5-b]indol-2(5H)-yl)acetamide]	30 to 80	–
CCN(C(=O)Cn1ncc2c(c1=O)c1ccccc1n2CCOC)c1ccc2c(c1)OC(F)(F)O2 [Example 132, N-(2,2-difluorobenzo[d][1,3]dioxol-5-yl)-N-ethyl-2-(5-(2-methoxyethyl)-1-oxo-1H-pyridazino[4,5-b]indol-2(5H)-yl)acetamide]	30 to 80	–
CCN(C(=O)Cn1ncc2c(c1=O)c1ccccc1n2Cc1ccccc1)c1ccc2c(c1)OC(F)(F)O2 [Example 133, 2-(5-benzyl-1-oxo-1H-pyridazino[4,5-b]indol-2(5H)-yl)-N-(2,2-difluorobenzo[d][1,3]dioxol-5-yl)-N-ethylacetamide]	30 to 80	–
CCN(C(=O)Cn1ncc2c(c1=O)c1ccccc1n2CCC(=O)OC)c1ccc2c(c1)OC(F)(F)O2 [Example 134, methyl 3-(2-(2-((2,2-difluorobenzo[d][1,3]dioxol-5-yl)(ethyl)amino)-2-oxoethyl)-1-oxo-1H-pyridazino[4,5-b]indol-5(2H)-yl)propanoate]	30 to 80	–
CCN(C(=O)Cn1ncc2c(c1=O)c1ccccc1n2Cc1cccc(OC)c1)c1ccc2c(c1)OC(F)(F)O2 [Example 135, N-(2,2-difluorobenzo[d][1,3]dioxol-5-yl)-N-ethyl-2-(5-(3-methoxybenzyl)-1-oxo-1H-pyridazino[4,5-b]indol-2(5H)-yl)acetamide]	30 to 80	< 10
CCN(C(=O)Cn1ncc2c(c1=O)c1ccccc1n2Cc1ccc(OC)cc1)c1ccc2c(c1)OC(F)(F)O2 [Example 136, N-(2,2-difluorobenzo[d][1,3]dioxol-5-yl)-N-ethyl-2-(5-(4-methoxybenzyl)-1-oxo-1H-pyridazino[4,5-b]indol-2(5H)-yl)acetamide]	30 to 80	< 10
CCN(C(=O)Cn1ncc2c(c1=O)c1ccccc1n2CCCOC)c1ccc2c(c1)OC(F)(F)O2 [Example 137, N-(2,2-difluorobenzo[d][1,3]dioxol-5-yl)-N-ethyl-2-(5-(3-methoxypropyl)-1-oxo-1H-pyridazino[4,5-b]indol-2(5H)-yl)acetamide]	30 to 80	–
CCN(C(=O)Cn1ncc2c(c1=O)c1ccccc1n2CCC#N)c1ccc2c(c1)OC(F)(F)O2 [Example 138, 2-(5-(2-cyanoethyl)-1-oxo-1H-pyridazino[4,5-b]indol-2(5H)-yl)-N-(2,2-difluorobenzo[d][1,3]dioxol-5-yl)-N-ethylacetamide]	10 to 30	> 20
CCN(C(=O)Cn1ncc2c(c1=O)c1ccccc1n2CC#N)c1ccc2c(c1)OC(F)(F)O2 [Example 139, 2-(5-(cyanomethyl)-1-oxo-1H-pyridazino[4,5-b]indol-2(5H)-yl)-N-(2,2-difluorobenzo[d][1,3]dioxol-5-yl)-N-ethylacetamide]	30 to 80	10 to 20
CCN(C(=O)Cn1ncc2c(c1=O)c1ccccc1n2Cc1ccccc1C#N)c1ccc2c(c1)OC(F)(F)O2 [Example 141, 2-(5-(2-cyanobenzyl)-1-oxo-1H-pyridazino[4,5-b]indol-2(5H)-yl)-N-(2,2-difluorobenzo[d][1,3]dioxol-5-yl)-N-ethylacetamide]	30 to 80	–
CCN(C(=O)Cn1ncc2c(c1=O)c1ccccc1n2Cc1cccc(C#N)c1)c1ccc2c(c1)OC(F)(F)O2 [Example 142, 2-(5-(3-cyanobenzyl)-1-oxo-1H-pyridazino[4,5-b]indol-2(5H)-yl)-N-(2,2-difluorobenzo[d][1,3]dioxol-5-yl)-N-ethylacetamide]	30 to 80	–
CCN(C(=O)Cn1ncc2c(c1=O)c1ccccc1n2Cc1ccc(C#N)cc1)c1ccc2c(c1)OC(F)(F)O2 [Example 144, 2-(5-(4-cyanobenzyl)-1-oxo-1H-pyridazino[4,5-b]indol-2(5H)-yl)-N-(2-2-difluorobenzo[d][1,3]dioxol-5-yl)-N-ethylacetamide]	> 80	10 to 20
CCN(C(=O)Cn1ncc2c(c1=O)c1ccccc1n2Cc1ccc(C#N)c(F)c1)c1ccc2c(c1)OC(F)(F)O2 [Example 145, 2-(5-(4-cyano-3-fluorobenzyl)-1-oxo-1H-pyridazino[4,5-b]indol-2(5H)-yl)-N-(2,2-difluorobenzo[d][1,3]dioxol-5-yl)-N-ethylacetamide]	30 to 80	< 10
CCN(C(=O)Cn1ncc2c(c1=O)c1ccccc1n2Cc1ccc(C#N)cc1F)c1ccc2c(c1)OC(F)(F)O2 [Example 146, 2-(5-(4-cyano-2-fluorobenzyl)-1-oxo-1H-pyridazino[4,5-b]indol-2(5H)-yl)-N-(2,2-difluorobenzo[d][1,3]dioxol-5-yl)-N-ethylacetamide]	30 to 80	< 10

Continued, values first:

Emax [%]	EC50 [µM]	SMILES
30 to 80	–	CCN(C(=O)Cn1ncc2c(c1=O)c1ccccc1n2Cc1cccnc1)c1ccc2c(c1)OC(F)(F)O2 [Example 140, N-(2,2-difluorobenzo[d][1,3]dioxol-5-yl)-N-ethyl-2-(1-oxo-5-(pyridin-3-ylmethyl)-1H-pyridazino[4,5-b]indol-2(5H)-yl)acetamide]
30 to 80	–	CCN(C(=O)Cn1ncc2c(c1=O)c1ccccc1n2Cc1ccncc1)c1ccc2c(c1)OC(F)(F)O2 [Example 143, N-(2,2-difluorobenzo[d][1,3]dioxol-5-yl)-N-ethyl-2-(1-oxo-5-(pyridin-4-ylmethyl)-1H-pyridazino[4,5-b]indol-2(5H)-yl)acetamide]
30 to 80	< 10	Cc1nc2ccc(N(C)C(=O)Cn3ncc4c(c3=O)c3ccccc3n4Cc3ccc(Cl)cc3)cc2o1 [Example 147, 2-(5-(4-chlorobenzyl)-1-oxo-1,5-dihydro-2H-pyridazino[4,5-b]indol-2-yl)-N-methyl-N-(2-methylbenzo[d]oxazol-6-yl)acetamide]
30 to 80	< 10	Cc1nc2ccc(N(C)C(=O)Cn3ncc4c(c3=O)c3ccccc3n4Cc3ccc(F)cc3)cc2o1 [Example 148, 2-(5-(4-fluorobenzyl)-1-oxo-1,5-dihydro-2H-pyridazino[4,5-b]indol-2-yl)-N-methyl-N-(2-methylbenzo[d]oxazol-6-yl)acetamide]
30 to 80	< 10	Cc1nc2ccc(N(C)C(=O)Cn3ncc4c(c3=O)c3ccccc3n4Cc3ccc(C#N)cc3)cc2o1 [Example 149, 2-(5-(4-cyanobenzyl)-1-oxo-1,5-dihydro-2H-pyridazino[4,5-b]indol-2-yl)-N-methyl-N-(2-methylbenzo[d]oxazol-6-yl)acetamide]
30 to 80	–	Cc1ccc(-n2nc(C(=O)N3CCCCC3)c3c4ccccc4n(C)c3c2=O)cc1 [Example 150, 5-methyl-1-(piperidine-1-carbonyl)-3-p-tolyl-3H-pyridazino [4,5-b]indol-4(5H)-one]
30 to 80	–	CCN(C(=O)c1nn(-c2ccccc2)c(=O)c2c1c1ccccc1n2C)c1ccncn1 [Example 151, N-ethyl-5-methyl-4-oxo-3-phenyl-N-(pyrimidin-4-yl)-4,5-dihydro-3H-pyridazino[4,5-b]indole-1-carboxamide]
30 to 80	–	Cc1ccc(-n2nc(C(=O)N(c3ccccc3)C(C)C)c3c4ccccc4n(C)c3c2=O)cc1 [Example 152, N-isopropyl-5-methyl-4-oxo-N-phenyl-3-(p-tolyl)-4,5-dihydro-3H-pyridazino[4,5-b]indole-1-carboxamide]
30 to 80	–	Cc1ccc(-n2nc(C(=O)N(c3ccccc3)C3CC3)c3c4ccccc4n(C)c3c2=O)cc1 [Example 153, N-cyclopropyl-5-methyl-4-oxo-N-phenyl-3-(p-tolyl)-4,5-dihydro-3H-pyridazino[4,5-b]indole-1-carboxamide]
30 to 80	–	Cc1ccc(-n2nc(C(=O)N(CC#N)c3ccccc3)c3c4ccccc4n(C)c3c2=O)cc1 [Example 154, N-(cyanomethyl)-5-methyl-4-oxo-N-phenyl-3-(p-tolyl)-4,5-dihydro-3H-pyridazino[4,5-b]indole-1-carboxamide]
30 to 80	–	CCN(CC)C(=O)c1nn(-c2ccc(C)cc2)c(=O)c2c1c1ccccc1n2C [Example 155, N, N-diethyl-5-methyl-4-oxo-3-(p-tolyl)-4,5-dihydro-3H-pyridazino[4,5-b]indole-1-carboxamide]
30 to 80	–	CCN(C(=O)c1nn(-c2ccc(C)cc2)c(=O)c2c1c1ccccc1n2C)c1ccccn1 [Example 156, N-ethyl-5-methyl-4-oxo-N-(pyridin-2-yl)-3-(p-tolyl)-4,5-dihydro-3H-pyridazino[4,5-b]indole-1-carboxamide]
30 to 80	–	CCN(C(=O)c1nn(-c2ccc(C)cc2)c(=O)c2c1c1ccccc1n2C)c1cccnc1 [Example 157, N-ethyl-5-methyl-4-oxo-N-(pyridin-3-yl)-3-(p-tolyl)-4,5-dihydro-3H-pyridazino[4,5-b]indole-1-carboxamide]
30 to 80	–	CCN(C(=O)c1nn(-c2ccccc2)c(=O)c2c1c1ccccc1n2C)c1ccncc1 [Example 158, N-ethyl-5-methyl-4-oxo-3-phenyl-N-(pyridin-4-yl)-4,5-dihydro-3H-pyridazino[4,5-b]indole-1-carboxamide]
30 to 80	–	Cc1ccc(-n2nc(C(=O)N3CCCc4ccccc43)c3c4ccccc4n(C)c3c2=O)cc1 [Example 159, 5-methyl-1-(1,2,3,4-tetrahydroquinoline-1-carbonyl)-3-(p-tolyl)-3H-pyridazino[4,5-b]indol-4(5H)-one]

Reference: patent US10370366B2 (Flatley Discovery Lab, LLC, priority 2013, dated 2019)
